Results on two substances are retold here after patent US12723236B2, “Method for producing cell aggregate” (TOPPAN Holdings Inc., priority 2021, dated 2026).

Entries after “also recorded” stand apart in the source; their conditions may differ.

One series relates to PXB cells, SEC and LX2. Put plainly: Aggregation behavior of cells treated with heparin/collagen (live-cell confocal observation). The conditions noted are these: 0.2 mg/mL collagen, 0.5 mg/mL heparin in 100 mM Tris-HCl; 96-well microplate; 2 hours after seeding; FIG. 2. In kind it is cell-based, Human. Here is the method: PXB cells, SEC and LX2 were used as cells.
The collected cells were mixed at the following ratios and cell amounts to obtain a cell mixture. • total amount of cells: 300,000 cells • cell proportions in tissue: • PXB cells: 65%·SEC: 25%·LX2: 10% Step 1-4
(§1) 100 μL of each of the following solutions was added to the cell mixture at room temperature, suspended until the cells were no longer visible, and then centrifuged (400 g×2 min) to obtain a viscous component. Here, regardless of the presence of heparin and collagen, it was confirmed in advance that the pH of each solution was approximately around 7.4. • (1) 100 mM Tris-HCl buffer solution • (2) collagen-containing solution (0.2 mg/mL collagen in 100 mM Tris-HCl buffer solution*) • (3) collagen and heparin-containing solution (0.2 mg/mL collagen and 0.5 mg/mL heparin in 100 mM Tris-HCl buffer solution) • *Since collagen quickly gelled in a neutral solution at room temperature, equal amounts of a 0.4 mg/mL collagen in 5 mM acetate buffer solution and a 200 mM Tris-HCl buffer solution prepared in advance were mixed in each of the above solutions and used. Step 1-5
After the supernatant was removed from the solution containing the viscous component, HCM was added so that the final volume of the solution was a solution amount of 100 μL to obtain a cell suspension. […]

A short description of series [1]: Gelation of neutral collagen solution at room temperature. The class given is physicochemical. The conditions noted are these: pH 7.4, room temperature. Here is the method:
as §1
Since collagen quickly gelled in a neutral solution at room temperature, equal amounts of a 0.4 mg/mL collagen in 5 mM acetate buffer solution and a 200 mM Tris-HCl buffer solution prepared in advance were mixed in each of the above solutions and used. […]

The test system of another series is MRP2. Put plainly: MRP2 immunostaining and image analysis of hepatotoxicity model formed in fibrin gel. The class given is cell-based, Human. The conditions noted are these: 3 days of culture; for expression of MRP2 (fluorescence): 0.2 mg/mL collagen and/or 0.5 mg/mL heparin.
A further series deals with bile canaliculi. Put plainly: Bile acid assay (CLF) confirming formation of bile canaliculi in hepatotoxicity model. The class given is cell-based, Human. The conditions noted are these: collagen 0.3 mg/mL, 6 days of culture. Here is the method:
A hepatotoxicity model was produced according to the same method as in the method described in Test Examples 1 and 2. However, the collagen concentration was 0.3 mg/mL, and the heparin concentration was 0.05 mg/mL, 0.15 mg/mL, 0.5 mg/mL, or 5.0 mg/mL (all final concentrations).
After 6 days of culture, the medium was replaced with 300 μL of a medium containing 5 μM CLF (FITC-labeled bile acid CORNING #451041) on which the following operation was performed (this assay was performed while cells were alive). After being left in the incubator for 20 min, the tissue was washed with PBS 5 times. The medium was replaced, and observation was performed under a fluorescence microscope.
FIG. 6, FIG. 7, FIG. 8, and FIG. 9 show the results of fluorescence observation after a medium containing CLF was incubated for the hepatotoxicity models produced with different heparin concentrations. […] In each drawing, the scale bar indicates 500 μm. In normal live tissue in which bile canaliculi were favorably formed, it was thought that, since hepatocytes excreted bile acids taken up from the outside of the live tissue into the bile canaliculi, the intensity of fluorescence derived from FITC retained in the cells was low after the CLF treatment.

Experimental for MRP2: Regarding hepatotoxicity models treated with each solution, it was evaluated whether there was a difference in the state of adhesion between hepatocytes.
A cell mixture with the following proportions and cell amounts was obtained in the same procedures as Steps 1-1 to 1-3 in Test Example 1. • total amount of cells: 300,000 cells • cell proportions in tissue: • PXB cell: 65%·SEC: 25%·LX2: 10% Step 2-2
After the supernatant was removed from the solution containing the viscous component obtained in Step 2-2, a 20 U/mL thrombin solution (solvent: HCM) was added so that the final volume of the solution was a solution amount of “the number of wells to be seeded”×2 μL to obtain a cell suspension.
2 μL of a 10 mg/mL fibrinogen solution was seeded on a 48-well microplate to form droplets and each cell suspension obtained in Step 2-3 was then added into the droplets, and then left in an incubator for 1 hour to form a fibrin gel.
0.5 mL of HCM (containing Endothelial Cell Growth Supplement) was added to each well in which the fibrin gel was formed.
After HCM was added, culture was continued for 3 days in each well in which the fibrin gel was formed.
After 3 days of culture, the 48-well microplate was removed from the incubator, the medium was removed, washing with PBS was performed, and 300 μL of a 4% paraformaldehyde·phosphate buffer solution (hereinafter referred to as PFA) was then added to each well to fix a hepatotoxicity model (3D model). Then, the PFA was washed thoroughly and removed.
100 μL of a 0.2 (v/v) % TRITON/1 (w/v) % BSA PBS solution (hereinafter referred to as a BSA solution) was added to each well, and left at room temperature for 2 hours.
Anti-MRP2 antibodies were diluted 100-fold with a BSA solution to obtain a primary antibody solution. 100 μL of the primary antibody solution was added to each well and left at 4° C. for 24 hours. Then, the primary antibody solution was washed thoroughly and removed.
Secondary antibodies were diluted 200-fold with a BSA solution to obtain a secondary antibody solution. 100 μL of the secondary antibody solution was added to each well, shielded from light and left at room temperature for 1 hour. Then, the secondary antibody solution was washed thoroughly and removed, and 100 μL of PBS was added to each well.
Images were captured under a confocal microscope. […]
The intensities of the captured images were summed to obtain a fluorescence observation image of each hepatotoxicity model (3D model). […]

For collagen, the aggregation of cells entry with PXB cells, SEC and LX2 is listed as “aggregation of cells was significantly promoted”. For the same substance, the “gelation of solution at room temperature” value in series [1] is recorded as “quickly gelled at room temperature”. The “expression of MRP2 (fluorescence)” value in the series on MRP2 (versus control, FIG. 3) was “expression of MRP2 tended to decrease significantly”. Also, the “aggregation of cells in hepatotoxicity model” value in the series with MRP2 (0.2 mg/mL collagen, FIG. 3) is recorded as “cells tended to aggregate excessively”.

In the case of heparin (hydrochloride), the “gelation of solution at room temperature” value in series [1] is listed as “did not gel at room temperature for a long time”. Moreover, the “expression of MRP2 (fluorescence)” value in the series with MRP2 (versus control, FIG. 3) was “fluorescence was enhanced as a whole compared to control conditions”. The “expression intensity percentage of MRP2 (expression area percentage per area, image analysis)” value in the series on MRP2 (versus control, FIG. 5) is “higher expression intensity percentage of MRP2 than the control”. Besides, the “excretion of CLF taken into hepatocytes into the bile canaliculi” value in the series with bile canaliculi (heparin 0.15, 0.5 or 5.0 mg/mL, 5 μM CLF 20 min, FIG. 7-9, (hydrochloride)) is recorded as “CLF taken into hepatocytes was more efficiently excreted into the bile canaliculi; also recorded: CLF taken into hepatocytes was easily excreted into the bile canaliculi”. The “intensity of fluorescence derived from FITC retained in the cells with increasing heparin concentration” value with bile canaliculi (heparin concentration increased, 5 μM CLF) was “the intensity of fluorescence derived from FITC retained in the cells decreased”.
